Columns and labels:
[1] = tested on: Zebrafish (Danio rerio); test: In vivo developmental toxicity study, embryo-larval zebrafish model; parameters: species or system Zebrafish (Danio rerio) of the AB strain
Method: In Vivo Developmental Toxicity Study
Due to the novel nature of the M2F8H18 amphiphile, there is no preceding toxicity data. Though some predictions can be made from previous work in the Mecozzi lab, a thorough study of developmental effects related to M2F8H18 was performed using an embryo-larval zebrafish model. This animal model was selected because zebrafish eggs remain transparent from fertilization until the tissues become dense as a mature adult. Several developmental endpoints can be simultaneously monitored providing valuable developmental toxicity data for new chemicals. Following short-term exposure, survival, and hatching, non-lethal malformations were monitored including curved body axis and pericardia edemas. Mortality rate was also monitored.
Zebrafish (Danio rerio) of the AB strain were obtained from our collaborator, Dr. Michael Taylor at the University of Madison-Wisconsin School of Pharmacy, where the fish were cultured until sexual maturation for crossing. The fish were maintained in a light/dark cycle of 14:10 hat 28.5° C. in egg water (0.03% Instant Ocean, Blacksburg, Va., USA). Zebrafish were fed with live brine shrimps (Artemia nauplii) twice a day. Embryos were obtained from healthy adult fish with a ratio of 1:2 for female to male. Six breeding groups were placed in separate spawning aquariums, equipped with a mesh bottom to prevent the eggs from being cannibalized. Crossing was induced in the morning when the light was turned on. One hour later, eggs free of macroscopically discernable symptoms of infection and disease were collected, rinsed with egg water and transferred into Petri dishes until chemical exposure.
The embryo-larvae toxicity assay was carried out according to previous studies in the Taylor and Mecozzi laboratories. Briefly, 8 fertilized eggs of 2 hpf (hours post-fertilization) stages were placed into each well of a 24-well plate and each filled with 600 μL egg water. Six concentrations (1 mM, 333 μM, 111 μM, 37 μM, 12.3 μM, and 4.1 μM) plus two controls were plated. The plate was covered and incubated at 28.5° C. in a light/dark cycle of 14:10 throughout the 96 hpf exposure period. The observations of zebrafish development were made directly in the well using a stereomicroscope (Nikon SMZ18) every 24 hr. Endpoints including mortality, spontaneous movement, hatching success, pericardial edema, and curved body axis, were selected to monitor the effects of M2F8H18. Embryos and larvae were considered dead when no heartbeat was observed. The number of hatched embryos and a cumulative mortality tally was recorded every 24 hr from 2 hpf. The number of larvae displaying pericardial edemas or curved body axes were also recorded every 24 hr from 2 hpf. […]

[2] = tested on: A549 non-small cell lung cancer cells; settings: read-out: Reported IC50 for the A549 cell line; cited from earlier work
[3] = cited from earlier work

**Q.** What does the source list for `O=C(O)C(F)(F)C(F)(F)C(F)(F)C(F)(F)C(F)(F)C(F)(F)C(F)(F)F` [PFOA, perfluorooctanoic acid]?
**A.** Malformations ([1]; 333 μM): curved body axis and mild pericardia edemas; Mortality (fish) ([1]; 333 μM, 96 hpf): 67%; Mortality ([1]; 1 mM, 96 hpf): mortality in all fish; Malformations ([1]; lower PFOA concentrations (111 μM and lower)): No other malformations were noted

**Q.** Which IC50 [2] does the source give for `CC(=O)O[C@H]1C(=O)[C@@]2(C)[C@H]([C@H](OC(=O)c3ccccc3)[C@]3(O)C[C@H](OC(=O)[C@H](O)[C@@H](NC(=O)c4ccccc4)c4ccccc4)C(C)=C1C3(C)C)[C@]1(OC(C)=O)CO[C@@H]1C[C@@H]2O` [Paclitaxel, paclitaxel] here?
**A.** 4 nM

**Q.** With `FC(F)(F)C(F)(F)C(F)(F)C(F)(F)C(F)(F)C(F)(F)C(F)(F)C(F)(F)Br` [perfluorooctyl bromide] as the compound, how does the “Solubility (in water)” value [3] read?
**A.** 5 nM

From patent US20200101014A1, “Stable Theranostic and Therapeutic Nanoemulsions Using Triphilic Semifluorinated Amphiphiles” (Wisconsin Alumni Research Foundation, priority 2017, published 2020)
